Reference: patent publication US20210145830A1, “MATERIALS AND METHODS FOR TREATING CANCER” (Mayo Foundation for Medical Education and Research, priority 2018, published 2021)
“Also recorded” adds a separate entry of the source.

Tested on: CART19
Assay: CART19 cytokine release (Luminex) in the presence of TP0903
Format: cell-based, human
Conditions: for Th2 cytokines IL-4 and IL-5 / cytokine release syndrome (CRS) cytokines (MCP1, IL-6, IL-10, MIP-b): Jeko or CLL cells
Procedure: FIG. 7 contains an exemplary timeline for a cytokine assay in the presence of TP0903. UTDs or CART19 were incubated with Jeko in the presence of TP0903 in the 1 to 1 ratio. At day 3, supernatant was harvested and analyzed by 32-plex Luminex array.
FIG. 23. CART19 cytokine production in the presence of TP0903. CART19 cells or untransduced T cells were co-cultured with JeKo-1 cells or leukemic B cells derived from patients with chronic lymphocytic leukemia for 3 days and supernatants were analyzed for human cytokines (Luminex, 38-plex).
FIG. 27. CART19 cytokine production in the presence of TP-0903. CART19 cells or untransduced T cells were co-cultured with JeKo-1 cells (left heat map) or leukemic B cells (right heat map) derived from patients with chronic lymphocytic leukemia for 3 days, and supernatants were analyzed for human cytokines (Luminex, 38-plex).
Effector and target cells were incubated at a 1:1 ratio in T cell media for 24 or 72 hours as indicated. Supernatant was harvested and analyzed by 30-plex Luminex array according to the manufacturer's protocol (Millipore).
UTDs or CART19 were incubated with Jeko cell line or primary CLL cells in the presence of TP0903, at 1:1 ratio for 3 days (FIG. 7). At the end of the experiment, supernatant was harvested and analyzed for cytokines by 30-plex multiplex. […] TP0903 suppressed critical cytokines for the development of CRS after CART cell therapy (FIG. 10).

[1] = 3 days, supernatant, listed as TP-0903

CN1CCN(Cc2ccc(Nc3ncc(Cl)c(Nc4ccccc4S(=O)(=O)N(C)C)n3)cc2)CC1 [TP0903]
CART Th1 specific cytokines (IFN-γ, TNF-α) (1:1 with Jeko or primary CLL cells, 3 days, supernatant): only high doses (supra-physiological) suppressed; also recorded: maintains
IL-8 (JeKo-1 or CLL leukemic B cells, 3 days, Luminex 38-plex): downregulated
cytokine production ability of IFN-γ, GM-CSF, TNF-α, and IL-2 (JeKo-1 or CLL patient leukemic B cells, 3 days, Luminex 38-plex): maintained
Th2 cytokines IL-4 and IL-5 (3 days, supernatant): suppresses; also recorded: significantly downregulated
cytokine release syndrome (CRS) cytokines (MCP1, IL-6, IL-10, MIP-b) (3 days, supernatant): suppresses; also recorded: reduction; also recorded: remarkably downregulated
Th2 cytokines IL-4 and IL-5 [1]: significantly downregulated
cytokine release syndrome (CRS) cytokines (MCP1, IL-6, IL-10, MIP-b) [1]: remarkably downregulated
Th polarization of CART cells (stimulated with JeKo or leukemic B cells from CLL patients): polarization of CART cells into a Th1 phenotype
